Data: article PMC5218480 (PLoS ONE, 2017)

Test system: MV-4-11 cells
Assay: Gene expression microarray analysis (Affymetrix PrimeView) and GSEA
Format: cell-based, human
Design: RFU PODN (11730768_x_at) / Fold change /veh PODN (11730768_x_at) / RFU LINC00158 (11744669_a_at) / Fold change /veh LINC00158 (11744669_a_at) / RFU DUSP10 (11751237_a_at) / Fold change /veh DUSP10 (11751237_a_at) / RFU ID3 (11757404_x_at) / Fold change /veh ID3 (11757404_x_at) / RFU PLEKHG5 (11737974_s_at) / Fold change /veh PLEKHG5 (11737974_s_at) / RFU LRRC4B (11730491_at) / Fold change /veh LRRC4B (11730491_at) / RFU GIMAP4 (11747438_a_at) / Fold change /veh GIMAP4 (11747438_a_at) / RFU KRT8 (11758183_x_at) / Fold change /veh KRT8 (11758183_x_at) / RFU CNN1 (11734310_a_at) / Fold change /veh CNN1 (11734310_a_at) / RFU VPS37D (11726825_at) / Fold change /veh VPS37D (11726825_at) / RFU C10orf10 (11716522_x_at) / Fold change /veh C10orf10 (11716522_x_at) / RFU KIR2DL2 /// KIR2DL4 /// KIR2DL5A /// KIR2DL5B /// KIR2DS1 /// KIR2DS2 /// KIR2DS3 /// KIR2DS4 /// KIR3DL3 /// KIR3DL3 /// KIR3DS1 (11738374_at) / Fold change /veh KIR2DL2 /// KIR2DL4 /// KIR2DL5A /// KIR2DL5B /// KIR2DS1 /// KIR2DS2 /// KIR2DS3 /// KIR2DS4 /// KIR3DL3 /// KIR3DL3 /// KIR3DS1 (11738374_at) / RFU C1QL1 (11718748_at) / Fold change /veh C1QL1 (11718748_at) / RFU TMPRSS4 (11747572_a_at) / Fold change /veh TMPRSS4 (11747572_a_at) / RFU HAMP (11756126_x_at) / Fold change /veh HAMP (11756126_x_at) / RFU RNFT2 (11725882_a_at) / Fold change /veh RNFT2 (11725882_a_at) / RFU NR4A2 (11747474_a_at) / Fold change /veh NR4A2 (11747474_a_at) / RFU ABCC12 (11746883_a_at) / Fold change /veh ABCC12 (11746883_a_at) / RFU TMEM136 (11760407_x_at) / Fold change /veh TMEM136 (11760407_x_at) / RFU CLDN22 /// WWC2 (11732394_at) / Fold change /veh CLDN22 /// WWC2 (11732394_at) / RFU HLA-DPB1 (11760878_x_at) / Fold change /veh HLA-DPB1 (11760878_x_at) / RFU SPINT1 (11716480_a_at) / Fold change /veh SPINT1 (11716480_a_at) / RFU GAP43 (11754022_s_at) / Fold change /veh GAP43 (11754022_s_at) / RFU A4GNT (11735810_at) / Fold change /veh A4GNT (11735810_at) / RFU PRB3 (11715151_x_at) / Fold change /veh PRB3 (11715151_x_at) / RFU TUBB4B (11761932_at) / Fold change /veh TUBB4B (11761932_at) / RFU CAPN14 (11732068_a_at) / Fold change /veh CAPN14 (11732068_a_at) / RFU TMCC2 (11721928_a_at) / Fold change /veh TMCC2 (11721928_a_at) / RFU IRGQ (11745062_a_at) / Fold change /veh IRGQ (11745062_a_at) / RFU FAM174B (11720279_a_at) / Fold change /veh FAM174B (11720279_a_at) / RFU TMPRSS4 (11748680_a_at) / Fold change /veh TMPRSS4 (11748680_a_at) / RFU FAM212B (11763350_a_at) / Fold change /veh FAM212B (11763350_a_at) / RFU PLEKHG5 (11743358_a_at) / Fold change /veh PLEKHG5 (11743358_a_at) / RFU ZSCAN30 (11745921_a_at) / Fold change /veh ZSCAN30 (11745921_a_at) / RFU CMKLR1 (11741424_a_at) / Fold change /veh CMKLR1 (11741424_a_at) / RFU LOC101060620 /// MAPK8IP1 (11723275_at) / Fold change /veh LOC101060620 /// MAPK8IP1 (11723275_at) / RFU SPTSSB (11747773_x_at) / Fold change /veh SPTSSB (11747773_x_at) / RFU PRSS12 (11739890_at) / Fold change /veh PRSS12 (11739890_at) / RFU BIN1 (11741810_x_at) / Fold change /veh BIN1 (11741810_x_at) / RFU WNT11 (11732464_a_at) / Fold change /veh WNT11 (11732464_a_at) / RFU C10orf10 (11716521_a_at) / Fold change /veh C10orf10 (11716521_a_at) / RFU C5orf56 (11738089_at) / Fold change /veh C5orf56 (11738089_at) / RFU CYB561 (11721691_x_at) / Fold change /veh CYB561 (11721691_x_at) / RFU ANKRD19P (11752326_a_at) / Fold change /veh ANKRD19P (11752326_a_at) / RFU OR2T12 /// OR2T33 /// OR2T8 (11738714_s_at) / Fold change /veh OR2T12 /// OR2T33 /// OR2T8 (11738714_s_at) / RFU VCAN (11748164_a_at) / Fold change /veh VCAN (11748164_a_at) / RFU JSRP1 (11732532_at) / Fold change /veh JSRP1 (11732532_at) / RFU KRTAP10-11 (11738290_x_at) / Fold change /veh KRTAP10-11 (11738290_x_at) / RFU MYO3A (11730013_a_at) / Fold change /veh MYO3A (11730013_a_at) / RFU EBF3 (11725865_a_at) / Fold change /veh EBF3 (11725865_a_at) / RFU CAMK2N1 (11719241_x_at) / Fold change /veh CAMK2N1 (11719241_x_at) / RFU C5orf56 (11738088_a_at) / Fold change /veh C5orf56 (11738088_a_at) / RFU OLFML3 (11715873_a_at) / Fold change /veh OLFML3 (11715873_a_at) / RFU LOC100653217 /// NTM (11731650_a_at) / Fold change /veh LOC100653217 /// NTM (11731650_a_at) / RFU MAPK11 (11762145_a_at) / Fold change /veh MAPK11 (11762145_a_at) / RFU FIZ1 (11724087_x_at) / Fold change /veh FIZ1 (11724087_x_at) / RFU OASL (11726364_x_at) / Fold change /veh OASL (11726364_x_at) / RFU SOX15 (11748057_x_at) / Fold change /veh SOX15 (11748057_x_at) / RFU CD79A (11719716_a_at) / Fold change /veh CD79A (11719716_a_at) / RFU HIST1H1D (11736915_at) / Fold change /veh HIST1H1D (11736915_at) / RFU CASKIN2 (11723855_a_at) / Fold change /veh CASKIN2 (11723855_a_at) / RFU LOC730098 (11760151_x_at) / Fold change /veh LOC730098 (11760151_x_at) / RFU OR4N2 (11742367_at) / Fold change /veh OR4N2 (11742367_at) / RFU PRRT2 (11749266_a_at) / Fold change /veh PRRT2 (11749266_a_at) / RFU SNX32 (11753110_a_at) / Fold change /veh SNX32 (11753110_a_at) / RFU CDHR5 (11726645_a_at) / Fold change /veh CDHR5 (11726645_a_at) / RFU RCAN1 (11760418_a_at) / Fold change /veh RCAN1 (11760418_a_at) / RFU FAM167A (11723789_a_at) / Fold change /veh FAM167A (11723789_a_at) / RFU FAM26E (11764081_at) / Fold change /veh FAM26E (11764081_at) / RFU ISYNA1 (11749810_s_at) / Fold change /veh ISYNA1 (11749810_s_at) / RFU ACY1 (11761880_at) / Fold change /veh ACY1 (11761880_at) / RFU 11764098_at / Fold change /veh 11764098_at / RFU SAMD14 (11745864_x_at) / Fold change /veh SAMD14 (11745864_x_at) / RFU NPB (11741838_a_at) / Fold change /veh NPB (11741838_a_at) / RFU TMPRSS6 (11731388_a_at) / Fold change /veh TMPRSS6 (11731388_a_at) / RFU KRTAP10-2 (11738614_at) / Fold change /veh KRTAP10-2 (11738614_at) / RFU ARHGAP8 /// PRR5-ARHGAP8 (11727945_x_at) / Fold change /veh ARHGAP8 /// PRR5-ARHGAP8 (11727945_x_at) / RFU KRTAP5-7 /// NADSYN1 (11734609_at) / Fold change /veh KRTAP5-7 /// NADSYN1 (11734609_at) / RFU RASL12 (11751679_a_at) / Fold change /veh RASL12 (11751679_a_at) / RFU CDKN2B (11736163_a_at) / Fold change /veh CDKN2B (11736163_a_at) / RFU PRF1 (11729649_at) / Fold change /veh PRF1 (11729649_at) / RFU, ZNF638 /// ZNF638-IT1 / Fold change vs veh, ZNF638 /// ZNF638-IT1 / RFU, PANK3 / Fold change vs veh, PANK3 / RFU, SH3YL1 / Fold change vs veh, SH3YL1 / RFU, ZEB2 / Fold change vs veh, ZEB2 / RFU, NRIP1 / Fold change vs veh, NRIP1 / RFU, PTTG1IP / Fold change vs veh, PTTG1IP / RFU, CAPN2 / Fold change vs veh, CAPN2 / RFU, MED14 / Fold change vs veh, MED14 / RFU, SNORA58 / Fold change vs veh, SNORA58 / RFU, C1orf63 / Fold change vs veh, C1orf63 / RFU, LRRFIP1 / Fold change vs veh, LRRFIP1 / RFU, NDUFAF7 / Fold change vs veh, NDUFAF7 / RFU, SLC12A2 / Fold change vs veh, SLC12A2 / RFU, IBTK / Fold change vs veh, IBTK / RFU, ESF1 / Fold change vs veh, ESF1 / Fold change vs veh, TMEM50B / RFU, TAOK1 / Fold change vs veh, TAOK1 / RFU, ACBD3 / Fold change vs veh, ACBD3 / RFU, TMA16 / Fold change vs veh, TMA16 / RFU, RWDD3 / Fold change vs veh, RWDD3 / RFU, BCAT1 / Fold change vs veh, BCAT1 / RFU, EDEM3 / Fold change vs veh, EDEM3 / RFU, TMEM33 / Fold change vs veh, TMEM33 / RFU, WDR75 / Fold change vs veh, WDR75 / RFU, AHCTF1 / Fold change vs veh, AHCTF1 / RFU, TFRC / Fold change vs veh, TFRC / RFU, ZDHHC17 / Fold change vs veh, ZDHHC17 / RFU, NOM1 / Fold change vs veh, NOM1 / RFU, ARL8B / Fold change vs veh, ARL8B / RFU, ZBTB11 / Fold change vs veh, ZBTB11 / RFU, TAMM41 / Fold change vs veh, TAMM41 / RFU, KIAA1704 /// LOC100996395 / Fold change vs veh, KIAA1704 /// LOC100996395 / RFU, ING1 / Fold change vs veh, ING1 / RFU, TRMT61B / Fold change vs veh, TRMT61B / RFU, FUBP3 / Fold change vs veh, FUBP3 / RFU, TP53 / Fold change vs veh, TP53 / RFU, TNKS2 / Fold change vs veh, TNKS2 / RFU, ZFP14 / Fold change vs veh, ZFP14 / RFU, ACTR2 / Fold change vs veh, ACTR2 / RFU, PPP3R1 / Fold change vs veh, PPP3R1 / RFU, PIK3R1 / Fold change vs veh, PIK3R1 / RFU, HNRNPA1 / Fold change vs veh, HNRNPA1 / RFU, RNF170 / Fold change vs veh, RNF170 / RFU, ZNF28 / Fold change vs veh, ZNF28 / RFU, RNGTT / Fold change vs veh, RNGTT / RFU, OGT / Fold change vs veh, OGT / RFU, BRD1 / Fold change vs veh, BRD1 / RFU, MARS / Fold change vs veh, MARS / RFU, ZNF655 / Fold change vs veh, ZNF655 / RFU, FAHD1 / Fold change vs veh, FAHD1 / RFU, BDP1 / Fold change vs veh, BDP1 / RFU, LRRCC1 / Fold change vs veh, LRRCC1 / RFU, ARID1A / Fold change vs veh, ARID1A / RFU, ZNF146 / Fold change vs veh, ZNF146 / RFU, ZNF330 / Fold change vs veh, ZNF330 / RFU, GPN3 / Fold change vs veh, GPN3 / RFU, C9orf123 / Fold change vs veh, C9orf123 / RFU, N4BP2L2 / Fold change vs veh, N4BP2L2 / RFU, ARFIP1 / Fold change vs veh, ARFIP1 / RFU, FAM179B / Fold change vs veh, FAM179B / RFU, BCL10 / Fold change vs veh, BCL10 / RFU, UHRF1BP1L / Fold change vs veh, UHRF1BP1L / RFU, BET1 / Fold change vs veh, BET1 / RFU, CNOT2 / Fold change vs veh, CNOT2 / RFU, ZNF268 / Fold change vs veh, ZNF268 / Fold change vs veh, ZNF507 / RFU, DGCR2 / Fold change vs veh, DGCR2 / RFU, WDSUB1 / Fold change vs veh, WDSUB1 / Fold change vs veh, HSP90B1 /// MIR3652 / RFU, ADSS / Fold change vs veh, ADSS / RFU, GK / Fold change vs veh, GK / RFU, ZNF148 / Fold change vs veh, ZNF148 / RFU, TAF9 / Fold change vs veh, TAF9 / RFU, SLC1A5 / Fold change vs veh, SLC1A5 / RFU, SLMO2 / Fold change vs veh, SLMO2 / RFU, ABCC4 / Fold change vs veh, ABCC4 / RFU, LOC101060439 /// RAP1B / Fold change vs veh, LOC101060439 /// RAP1B / RFU, RFX7 / Fold change vs veh, RFX7 / RFU, GTPBP10 / Fold change vs veh, GTPBP10 / RFU, CNEP1R1 / Fold change vs veh, CNEP1R1 / RFU, BIVM-ERCC5 /// ERCC5 / Fold change vs veh, BIVM-ERCC5 /// ERCC5 / RFU, ILF3 / Fold change vs veh, ILF3 / RFU 11762660_at / Fold change /veh 11762660_at / RFU VCAN (11757783_s_at) / Fold change /veh VCAN (11757783_s_at) / RFU DDX43 (11728927_at) / Fold change /veh DDX43 (11728927_at) / RFU KRT8 (11758188_x_at) / Fold change /veh KRT8 (11758188_x_at) / RFU NKD1 (11759106_at) / Fold change /veh NKD1 (11759106_at) / RFU SRD5A1 (11742802_a_at) / Fold change /veh SRD5A1 (11742802_a_at) / RFU TPSAB1 /// TPSB2 (11721975_s_at) / Fold change /veh TPSAB1 /// TPSB2 (11721975_s_at) / RFU GSTM3 (11746129_a_at) / Fold change /veh GSTM3 (11746129_a_at) / RFU IL23R (11737362_x_at) / Fold change /veh IL23R (11737362_x_at) / RFU TMEM51 (11727254_a_at) / Fold change /veh TMEM51 (11727254_a_at) / RFU PIWIL2 (11732686_x_at) / Fold change /veh PIWIL2 (11732686_x_at) / RFU ORM1 (11744905_x_at) / Fold change /veh ORM1 (11744905_x_at) / RFU CCDC152 (11743942_at) / Fold change /veh CCDC152 (11743942_at) / RFU ECM1 (11717891_a_at) / Fold change /veh ECM1 (11717891_a_at) / RFU IL23R (11748794_a_at) / Fold change /veh IL23R (11748794_a_at) / RFU TNFAIP8L3 (11732012_x_at) / Fold change /veh TNFAIP8L3 (11732012_x_at) / RFU MBOAT4 (11741988_at) / Fold change /veh MBOAT4 (11741988_at) / RFU 11764193_at / Fold change /veh 11764193_at / RFU TMEM53 (11763286_at) / Fold change /veh TMEM53 (11763286_at) / RFU MAGEB2 (11727129_at) / Fold change /veh MAGEB2 (11727129_at) / RFU TMEM200A (11744735_a_at) / Fold change /veh TMEM200A (11744735_a_at) / RFU CCDC152 (11751479_a_at) / Fold change /veh CCDC152 (11751479_a_at) / RFU FAM211A (11726209_a_at) / Fold change /veh FAM211A (11726209_a_at) / RFU RGS16 (11746705_a_at) / Fold change /veh RGS16 (11746705_a_at) / RFU VCAN (11755009_s_at) / Fold change /veh VCAN (11755009_s_at) / RFU RHOB (11743442_s_at) / Fold change /veh RHOB (11743442_s_at) / RFU RGS16 (11720943_a_at) / Fold change /veh RGS16 (11720943_a_at) / RFU RGS16 (11720944_at) / Fold change /veh RGS16 (11720944_at) / RFU, VPS4B / Fold change vs veh, VPS4B / RFU, CREB1 / Fold change vs veh, CREB1 / RFU, DNAJC13 / Fold change vs veh, DNAJC13 / RFU, GNAQ / Fold change vs veh, GNAQ / RFU, CDK5R1 / Fold change vs veh, CDK5R1 / RFU, ZRANB3 / Fold change vs veh, ZRANB3 / RFU, CUL4A / Fold change vs veh, CUL4A / RFU, CCNY / Fold change vs veh, CCNY / RFU, UFL1 / Fold change vs veh, UFL1 / RFU, COG3 / Fold change vs veh, COG3 / RFU, DIAPH2 / Fold change vs veh, DIAPH2 / RFU, SKA2 / Fold change vs veh, SKA2 / RFU, AFF3 / Fold change vs veh, AFF3 / RFU, LMF1 / Fold change vs veh, LMF1 / RFU, IPO11 / Fold change vs veh, IPO11 / RFU, DFFB / Fold change vs veh, DFFB / RFU, FOXP1 / Fold change vs veh, FOXP1 / RFU, CARD8 / Fold change vs veh, CARD8 / RFU, STRN3 / Fold change vs veh, STRN3 / RFU, ADK / Fold change vs veh, ADK / RFU, RASSF2 / Fold change vs veh, RASSF2 / RFU, WIPF1 / Fold change vs veh, WIPF1 / RFU, LARP1B / Fold change vs veh, LARP1B / RFU, RASA1 / Fold change vs veh, RASA1 / RFU, RB1 / Fold change vs veh, RB1 / RFU, PPFIA1 / Fold change vs veh, PPFIA1 / RFU, MAT2A / Fold change vs veh, MAT2A / RFU, CCT5 / Fold change vs veh, CCT5 / RFU, WDR92 / Fold change vs veh, WDR92 / RFU, CUX1 / Fold change vs veh, CUX1 / RFU, TTC7A / Fold change vs veh, TTC7A / RFU, TMEM135 / Fold change vs veh, TMEM135 / RFU, DEPTOR / Fold change vs veh, DEPTOR / RFU, CPM / Fold change vs veh, CPM / RFU, DNAJB6 / Fold change vs veh, DNAJB6 / RFU, CACNA2D3 / Fold change vs veh, CACNA2D3 / RFU, DTX4 / Fold change vs veh, DTX4 / RFU, TFCP2 / Fold change vs veh, TFCP2 / RFU, GMCL1 /// GMCL1P1 / Fold change vs veh, GMCL1 /// GMCL1P1 / RFU, AEBP2 / Fold change vs veh, AEBP2 / RFU, SNHG1 /// SNORD22 /// SNORD25 /// SNORD26 /// SNORD27 /// SNORD28 /// SNORD29 /// SNORD31 / Fold change vs veh, SNHG1 /// SNORD22 /// SNORD25 /// SNORD26 /// SNORD27 /// SNORD28 /// SNORD29 /// SNORD31 / Fold change (Aza/veh), C12orf56 (ProbeSet 11735607_a_at) / Fold change (ACY-1035/veh), C12orf56 (ProbeSet 11735607_a_at) / Fold change (Aza/veh), FGFR1OP (ProbeSet 11751329_s_at) / Fold change (ACY-1035/veh), FGFR1OP (ProbeSet 11751329_s_at) / Fold change (Aza/veh), VPS36 (ProbeSet 11739960_a_at) / Fold change (ACY-1035/veh), VPS36 (ProbeSet 11739960_a_at) / RFU SYPL1 (11715823_x_at) / Fold change /veh SYPL1 (11715823_x_at) / RFU IGFBP7 (11715501_s_at) / Fold change /veh IGFBP7 (11715501_s_at) / RFU REEP3 (11722064_at) / Fold change /veh REEP3 (11722064_at) / RFU IGLL1 (11728026_x_at) / Fold change /veh IGLL1 (11728026_x_at): dose or concentration left out as unconfirmed
Settings: ProbeSet 11748335_a_at; LIST B

`Nc1ncn([C@@H]2O[C@H](CO)[C@@H](O)[C@H]2O)c(=O)n1` [azacitidine] was tested, and the “Fold change vs veh, SLMO2” value was 0.87.
